Reference: patent US8193147B2, “Use of copolymer 1 for treatment of muscular dystrophy” (Hadasit Medical Research Services & Development Ltd., priority 2007, dated 2012)

Experiments:
Format in all cases: in vivo, mouse
[1] = system: HO (homozygote) dy^2j mice; assay: Grip strength of hind and fore limbs (Grip Strength Meter) in GA-treated dy2J mice; details: for hind limbs strength (muscle grip strength per body weight): between week 7 and week 19, p=0.0017, FIG. 1A
Procedure: (§1) Population: Twenty C57BL old mice were randomly divided into 4 groups (5 in each group):
1. WT mice—treated saline 100 μl/IP
2. WT mice—treated with 200 μg GA/IP
3. HO mice—treated Saline 100 μl/IP
4. HO mice—treated with 200 μg GA/IP
(§2) At 5 weeks of age WT and dy^2J animals were randomly divided to the treated and control groups. The animals were treated three times a week for 13 weeks.
Measurement of muscle strength (blind measurement). Once a week weight gain and total peak force (in Gram force/g bodyweight) were determined using electronic Grip Strength Meter, Columbus Instruments (Columbus, Ohio). Muscle strength measurements of both fore and hind limbs were performed according to Connolly A. M. et al., 2001. Mice were brought to the testing room and allowed to acclimatize for 10 minutes before the test begins. Five measurements (fore and hind limbs) were taken from each animal. The three highest measurements for each animal were averaged to give the strength score. Between the fore and hind measurements the mice were allowed to rest for 10 minutes. All measurements were performed by the same person.

[2] = system: HO (homozygote) dy^2j mice; assay: Motion analysis by video-recording (EthoVision), HO dy2J mice
Procedure: as §1, §2
(§3) Motion analysis by video-recording. At the end of the experiment (19 week of age) animal mobility and well-being were video recorded for 10 minutes sessions. The video films were analyzed using the EthoVision system (NBT-New Biotechnology, Jerusalem, Israel, video tracking system recording of activity and movement). Quantitative parameters of mobility of the animals including total distance, maximum distance in 0.2 second, average and peak velocity were calculated.

[3] = system: WT (wild type) C57BL mice; assay: Motion analysis by video-recording (EthoVision), WT mice; details: WT GA vs WT saline
Procedure: as §1, §2, §3

[4] = system: dy^2j mice; assay: Muscle biopsy histology (Hematoxylin-Eosin), muscular fibrosis; details: dy^2j mice treated with GA for 12 weeks vs untreated; biopsies in week 17; FIG. 7
Procedure: Tissue analysis. […]
Muscle biopsies. Muscle biopsies were obtained from the hind limbs and were tested for:
1. Muscle histology hematoxylin and eosin stain (H&E) and Gommori trichrome stains

[5] = system: WT and dy^2J mice; assay: Observation of side effects during treatment; details: treated group; 200 μg GA IP three times a week for 13 weeks
Procedure: as §2
No animal had paralysis with inability to reach food or water or dramatic weight loss (more than 10% weight loss between two weightings or 20% or more than its initial weight) or any other severe stress signs, that would necessitate withdrawal of the animal from the experiment.

Substance: glatiramer acetate [GA]
- fore limbs strength (muscle grip strength per body weight) ([1]; GA 200 μg IP three times a week, GA-treated HO vs untreated HO, p=0.13, FIG. 1B): only minimal effect
- hind limbs strength (muscle grip strength per body weight) ([1]; GA 200 μg IP three times a week, GA-treated HO vs untreated HO): Significant increase
- hind limbs strength (muscle grip strength per body weight) ([1]; GA 200 μg IP three times a week, GA-treated HO vs untreated HO, listed as Cop 1): improved significantly
- percentage of hind limbs strength, end of the experiment ([1]; HO treated mice, age 19 weeks, 100% = WT saline group at age seven weeks, FIG. 2): 95.26%
- percentage of hind limbs strength, initial ([1]; HO treated mice, week 7, 100% = WT saline group at age seven weeks, FIG. 2): 62.74%
- hind limbs muscle strength compared with wild type mice ([1]; treated dy^2j mice, at the end of the experiment, IP injection): as strong as the wild type mice
- maximal distance in 0.2 sec period ([2]; HO GA treated vs untreated, p=0.016, FIG. 6): significantly longer
- total 10-minutes average distance ([2]; HO GA treated vs untreated, p=0.052, FIG. 5): significantly longer
- total ten minutes average velocity ([2]; HO GA-treated (n=5) vs untreated (n=4), p=0.051, FIG. 3): significantly faster
- peak velocity in 0.2 sec period ([2]; HO GA-treated vs HO untreated, p=0.017, FIG. 4): significantly faster
- mobility ([2]; treated dy^2j mice vs untreated dy^2j mice): improved significantly
- mobility compared with wild type mice ([2]; treated dy^2j mice, at the end of the experiment): undistinguishable from the mobility of the wild type mice
- peak velocity in 0.2 sec period ([3]; p=0.38, FIG. 4): not significantly different
- maximal distance in 0.2 sec period ([3]; p=0.39, FIG. 6): not significantly different
- total ten minutes average velocity ([3]; p=0.51, FIG. 3): not significantly different
- total 10-minutes average distance ([3]; p=0.51, FIG. 5): not significantly different
- muscular fibrosis in muscle biopsies [4]: significantly reduced muscular fibrosis
- side effects [5]: No other side effects were noted
